Test results as given in patent US4075190A, “Pentapeptide with morphine-like activity” (American Home Products Corporation, priority 1977, dated 1978).
Square brackets hold non-standard residues; d marks the D form. Peptide text beside a SMILES is read from it.

Legend:
opiate receptors = assay: displacement of 3H-naloxone from binding sites in rat brain homogenates
rats [1] = assay: rat-tail flick method, intracerebroventricular injection; assay type: in vivo; settings: for Mean % Change ± SEM: change in latency, drug minus baseline; for analgesic effect / pain threshold: injected into the lateral brain ventricle; for analgesic effect / pain threshold / Mean Latency ± SEM, Drug: rat-tail flick; for Mean Latency ± SEM, Drug: after drug
Method: In this test method, which is a standard test for analgesia, a light beam is focused on the tip of the rat's tail, and the pain threshold of the animal is measured by the latency of the rat to remove his tail from the noxious heat source. When tested by the rat-tail flick method by intracerebroventricular injection, according to the procedure of Belluzzi et al., Nature, 260, 625 (1976), the pentapeptide H-Tyr-Gly-Gly-Phe-d-Lys-OH produced the effects set forth in Table I.
*All drugs were dissolved in […]. of Ringer's solution and injected int
the lateral ventricle through permanently-indwelling cannulae.

guinea pig ileum = settings: cited from earlier work
rats [2] = settings: injection in the brain ventricle in rats; cited from earlier work
mouse vas deferens = settings: cited from earlier work
opiate receptor = settings: brain homogenates; cited from earlier work
[3] = dose 100 μg into the lateral ventricle
[4] = dose 10 μg into the lateral ventricle

NCCCC[C@@H](NC(=O)[C@H](Cc1ccccc1)NC(=O)CNC(=O)CNC(=O)[C@@H](N)Cc1ccc(O)cc1)C(=O)O [H-Tyr-Gly-Gly-Phe-D-Lys-OH, L-Tyrosyl-Glycyl-Glycyl-L-Phenylalanyl-D-Lysine] (H-YGGF[dK]-OH)
binding to opiate receptors (opiate receptors; in vitro): weak binding | displacement of 3H-naloxone from binding sites (opiate receptors; rat brain homogenates): capable of displacing 3h-naloxone | Mean % Change ± SEM (rats [1]; [3]): 78.97 ± 7.85% | analgesic effect / pain threshold (rats [1]): produced an increase in pain threshold | analgesic effect / pain threshold (rats [1]; listed as pentapeptide of Formula I): exerts an analgesic effect | Mean Latency ± SEM, Drug (rats [1]; [3]): 6.16 ± 0.06

CSCC[C@H](NC(=O)[C@H](Cc1ccccc1)NC(=O)CNC(=O)CNC(=O)[C@@H](N)Cc1ccc(O)cc1)C(=O)O [Methionine-Enkephalin, H-Tyr-Gly-Gly-Phe-Met-OH]
block of electrically evoked contractions (guinea pig ileum): mimic the ability of morphine to block electrically evoked contractions | analgesia (rats [2]): induce a profound analgesia that is fully reversible by naloxone | Mean % Change ± SEM (rats [1]; [3]): 37.2 ± 8.8% | Mean Latency ± SEM, Drug (rats [1]; [3]): 5.19 ± 0.31 | block of electrically evoked contractions (mouse vas deferens): mimic the ability of morphine to block electrically evoked contractions | inhibition of stereospecific receptor binding of 3H-naloxone (opiate receptor): inhibit the stereospecific receptor binding

CN1CC[C@]23c4c5ccc(O)c4O[C@H]2[C@@H](O)C=C[C@H]3[C@H]1C5.O=S(=O)(O)O [Morphine Sulfate]
Mean % Change ± SEM (rats [1]; [4]): 65.4 ± 9.1% | Mean Latency ± SEM, Drug (rats [1]; [4]): 6.59 ± 0.73

H-Tyr-Gly-Gly-Phe-Leu-OH [leucine-enkephalin]
analgesia (rats [2]): induce a profound analgesia that is fully reversible by naloxone
